Test results reported in ChEMBL document CHEMBL4004803, “Syntheses and antibacterial activity of soluble 9-bromo substituted indolizinoquinoline-5,12-dione derivatives” (Eur J Med Chem, 2017).
In brackets after ≈: the same amount, converted by molar mass.

Key:
[1] = tested on: Staphylococcus aureus; experiment: Antibacterial activity against methicillin-resistant Staphylococcus aureus 1026211 clinical isolate after 20 to 24 hrs by two-fold microdilution method; type: functional
[2] = tested on: Staphylococcus aureus; experiment: Potency index, ratio of vancomycin MIC to test compound MIC for […] Staphylococcus aureus ATCC 25923; type: functional
[3] = tested on: Staphylococcus aureus; experiment: Antibacterial activity against methicillin-resistant Staphylococcus aureus 1128040 clinical isolate after 20 to 24 hrs by two-fold microdilution method; type: functional
[4] = tested on: Staphylococcus aureus; experiment: Antibacterial activity against methicillin-resistant Staphylococcus aureus 30116-1 clinical isolate after 20 to 24 hrs by two-fold microdilution method; type: functional
[5] = tested on: Staphylococcus aureus; experiment: Antibacterial activity against methicillin-resistant Staphylococcus aureus 831024 clinical isolate after 20 to 24 hrs by two-fold microdilution method; type: functional
[6] = tested on: Staphylococcus aureus; experiment: Antibacterial activity against methicillin-resistant Staphylococcus aureus 504008 clinical isolate after 20 to 24 hrs by two-fold microdilution method; type: functional
[7] = tested on: Staphylococcus aureus; experiment: Antibacterial activity against methicillin-resistant Staphylococcus aureus 122710-2 clinical isolate after 20 to 24 hrs by two-fold microdilution method; type: functional
[8] = tested on: Staphylococcus aureus; experiment: Antibacterial activity against methicillin-resistant Staphylococcus aureus 1207026 clinical isolate after 20 to 24 hrs by two-fold microdilution method; type: functional
[9] = tested on: Streptococcus pyogenes; experiment: Antibacterial activity against Streptococcus pyogenes ATCC 19615 after 20 to 24 hrs by two-fold microdilution method; type: functional
[10] = tested on: Staphylococcus aureus; experiment: Antibacterial activity against methicillin-resistant Staphylococcus aureus 131215 clinical isolate after 20 to 24 hrs by two-fold microdilution method; type: functional
[11] = tested on: Staphylococcus aureus; experiment: Antibacterial activity against methicillin-resistant Staphylococcus aureus 1111047-1 clinical isolate after 20 to 24 hrs by two-fold microdilution method; type: functional
[12] = tested on: Staphylococcus aureus; experiment: Antibacterial activity against methicillin-resistant Staphylococcus aureus 316031 clinical isolate after 20 to 24 hrs by two-fold microdilution method; type: functional
[13] = tested on: Staphylococcus aureus; experiment: Antibacterial activity against methicillin-resistant Staphylococcus aureus 1029025 clinical isolate after 20 to 24 hrs by two-fold microdilution method; type: functional
[14] = tested on: Staphylococcus aureus; experiment: Antibacterial activity against […] Staphylococcus aureus ATCC 25923 after 20 to 24 hrs by two-fold microdilution method; type: functional
[15] = tested on: Staphylococcus aureus; experiment: Antibacterial activity against methicillin-resistant Staphylococcus aureus 531220 clinical isolate after 20 to 24 hrs by two-fold microdilution method; type: functional
[16] = tested on: Staphylococcus aureus; experiment: Antibacterial activity against methicillin-resistant Staphylococcus aureus 111423 clinical isolate after 20 to 24 hrs by two-fold microdilution method; type: functional
[17] = Solubility of the compound in water at 25 degC measured after shaking for 4 hrs by UV method; type: physicochemical; details: for solubility: buffer, 4 h; for solubility thermodynamic at 4 h: water
[18] = tested on: Staphylococcus aureus; experiment: Potency index, ratio of vancomycin MIC90 to test compound MIC90 for methicillin-resistant Staphylococcus aureus; type: functional
[19] = tested on: Staphylococcus aureus; experiment: Potency index, ratio of vancomycin MIC50 to test compound MIC50 for methicillin-resistant Staphylococcus aureus; type: functional

O=C1c2cccnc2C(=O)c2c1c(C(=O)OCCCCCCN1CCOCC1)c1ccc(Br)cn21
MIC [1]: ≤ 0.0078 µg/mL | Ratio [2]: 256 | MIC [3]: ≤ 0.0078 µg/mL | MIC [4]: ≤ 0.0078 µg/mL | MIC [5]: ≤ 0.0078 µg/mL | MIC [6]: ≤ 0.0078 µg/mL | MIC [7]: ≤ 0.0078 µg/mL | MIC [8]: ≤ 0.0078 µg/mL | MIC [9]: 2 µg/mL (≈ 3.7 µM) | MIC [10]: 0.0078 µg/mL (≈ 0.0144 µM) | MIC [11]: ≤ 0.0078 µg/mL | MIC [12]: ≤ 0.0078 µg/mL | MIC [13]: ≤ 0.0078 µg/mL | MIC [14]: ≤ 0.0078 µg/mL | MIC [15]: ≤ 0.0078 µg/mL | MIC [16]: 16 µg/mL (≈ 29.6 µM) | solubility [17]: Insoluble

O=C1c2cccnc2C(=O)c2c1c(C(=O)OCCCCCN1CCOCC1)c1ccc(Br)cn21
MIC [1]: ≤ 0.0078 µg/mL | MIC [3]: ≤ 0.0078 µg/mL | MIC [4]: ≤ 0.0078 µg/mL | MIC [5]: 0.063 µg/mL (≈ 0.12 µM) | MIC [6]: 0.063 µg/mL (≈ 0.12 µM) | MIC [7]: ≤ 0.0078 µg/mL | MIC [8]: ≤ 0.0078 µg/mL | MIC [9]: 8 µg/mL (≈ 15.2 µM) | MIC [10]: 0.016 µg/mL (≈ 0.0304 µM) | MIC [11]: 0.063 µg/mL (≈ 0.12 µM) | MIC [12]: 0.031 µg/mL (≈ 0.0589 µM) | MIC [13]: 0.031 µg/mL (≈ 0.0589 µM) | MIC [14]: 0.016 µg/mL (≈ 0.0304 µM) | MIC [15]: ≤ 0.0078 µg/mL | MIC [16]: 16 µg/mL (≈ 30.4 µM) | solubility [17]: Insoluble

O=C1c2cccnc2C(=O)c2c1c(C(=O)OCCCCCCN1CCCCC1)c1ccc(Br)cn21
MIC [1]: 0.063 µg/mL (≈ 0.117 µM) | Ratio [18]: 16 | MIC [3]: 0.063 µg/mL (≈ 0.117 µM) | MIC [4]: 0.063 µg/mL (≈ 0.117 µM) | Ratio [19]: 16 | MIC [5]: 0.063 µg/mL (≈ 0.117 µM) | MIC [6]: 0.063 µg/mL (≈ 0.117 µM) | MIC [7]: 0.031 µg/mL (≈ 0.0576 µM) | MIC [8]: 0.063 µg/mL (≈ 0.117 µM) | MIC [9]: 2 µg/mL (≈ 3.71 µM) | MIC [10]: 0.031 µg/mL (≈ 0.0576 µM) | MIC [11]: 0.25 µg/mL (≈ 0.464 µM) | MIC [12]: 0.125 µg/mL (≈ 0.232 µM) | MIC [13]: 0.063 µg/mL (≈ 0.117 µM) | MIC [14]: 0.031 µg/mL (≈ 0.0576 µM) | MIC [15]: 0.25 µg/mL (≈ 0.464 µM) | MIC [16]: > 16 µg/mL | solubility thermodynamic at 4 h [17]: 1980 µg/mL (≈ 3680 µM)

CN1CCN(CCCCCCOC(=O)c2c3c(n4cc(Br)ccc24)C(=O)c2ncccc2C3=O)CC1
MIC [1]: ≤ 0.0078 µg/mL | Ratio [2]: 256 | MIC [3]: 0.063 µg/mL (≈ 0.114 µM) | MIC [4]: 0.125 µg/mL (≈ 0.226 µM) | MIC [5]: ≤ 0.0078 µg/mL | MIC [6]: 0.125 µg/mL (≈ 0.226 µM) | MIC [7]: 0.063 µg/mL (≈ 0.114 µM) | MIC [8]: 0.063 µg/mL (≈ 0.114 µM) | MIC [9]: 2 µg/mL (≈ 3.61 µM) | MIC [10]: 0.063 µg/mL (≈ 0.114 µM) | MIC [11]: 1 µg/mL (≈ 1.81 µM) | MIC [12]: 0.25 µg/mL (≈ 0.452 µM) | MIC [13]: 0.063 µg/mL (≈ 0.114 µM) | MIC [14]: ≤ 0.0078 µg/mL | MIC [15]: ≤ 0.0078 µg/mL | MIC [16]: 16 µg/mL (≈ 28.9 µM) | solubility thermodynamic at 4 h [17]: 2060 µg/mL (≈ 3720 µM)

O=C1c2cccnc2C(=O)c2c1c(C(=O)OCCCCN1CCOCC1)c1ccc(Br)cn21
MIC [1]: 0.063 µg/mL (≈ 0.123 µM) | MIC [3]: 0.25 µg/mL (≈ 0.488 µM) | MIC [4]: 0.5 µg/mL (≈ 0.976 µM) | MIC [5]: 0.5 µg/mL (≈ 0.976 µM) | MIC [6]: 0.25 µg/mL (≈ 0.488 µM) | MIC [7]: 0.25 µg/mL (≈ 0.488 µM) | MIC [8]: 0.5 µg/mL (≈ 0.976 µM) | MIC [9]: 4 µg/mL (≈ 7.81 µM) | MIC [10]: 0.125 µg/mL (≈ 0.244 µM) | MIC [11]: 1 µg/mL (≈ 1.95 µM) | MIC [12]: 0.5 µg/mL (≈ 0.976 µM) | MIC [13]: 0.5 µg/mL (≈ 0.976 µM) | MIC [14]: 0.063 µg/mL (≈ 0.123 µM) | MIC [15]: 0.25 µg/mL (≈ 0.488 µM) | MIC [16]: 8 µg/mL (≈ 15.6 µM) | solubility [17]: Insoluble

CN(C)CCCCCOC(=O)c1c2c(n3cc(Br)ccc13)C(=O)c1ncccc1C2=O
MIC [1]: 0.063 µg/mL (≈ 0.13 µM) | Ratio [2]: 256 | MIC [3]: 0.25 µg/mL (≈ 0.516 µM) | MIC [4]: 0.5 µg/mL (≈ 1.03 µM) | MIC [5]: 0.125 µg/mL (≈ 0.258 µM) | MIC [6]: 0.5 µg/mL (≈ 1.03 µM) | MIC [7]: 0.25 µg/mL (≈ 0.516 µM) | MIC [8]: 0.125 µg/mL (≈ 0.258 µM) | MIC [9]: 2 µg/mL (≈ 4.13 µM) | MIC [10]: 0.25 µg/mL (≈ 0.516 µM) | MIC [11]: 0.5 µg/mL (≈ 1.03 µM) | MIC [12]: 0.5 µg/mL (≈ 1.03 µM) | MIC [13]: 0.25 µg/mL (≈ 0.516 µM) | MIC [14]: ≤ 0.0078 µg/mL | MIC [15]: 0.25 µg/mL (≈ 0.516 µM) | MIC [16]: 2 µg/mL (≈ 4.13 µM) | solubility [17]: Insoluble
